Laboratory results published in patent publication US12492200B2, “NLRP3 modulators” (INNATE TUMOR IMMUNITY, INC., priority 2020, dated 2025).

Experiments:
Format in all cases: cell-based
[1] = molecular target: T1, NLRP3 (Homo sapiens, UniProt Q96P20); test: Measurement of IL-1β production (NLRP3 hIL1β EC50), PMA-differentiated THP-1 cells; conditions: human IL-1β production; assayed using one or more of the described procedures
T1 construct: host or cells: PMA-differentiated THP-1 cells
Procedure: THP-1 cells were purchased from the American Type Culture Collection and sub-cultured according to instructions from the supplier. Prior to experiments, cells were cultured in RPMI 1640 containing 10% heat inactivated FBS, penicillin (100 units/ml) and streptomycin (100 μg/ml), and maintained in log phase prior to experimental setup. Prior to the experiment THIP-1 were treated with PMA (Phorbol 12-myristate 13-acetate) (10 μg/ml) for 24 hours. The day of the experiment the media was removed and attaching cells were treated with trypsin for 2 minutes, cells were then collected, washed with PBS (phosphate buffer saline), spin down, resuspended in 2% heat inactivated FBS with RPMI at a concentration of 1×10^6 cells/ml, and 100 μl was plated in a 96 well plate. Compounds were dissolved in dimethyl sulfoxide (DMSO) and added to the culture medium to achieve desired concentration (e.g. 100, 30, 10, 3, 1, 0.3 or 0.1 μM). Cells were incubated with compounds for 4 hours. Cell free supernatant was collected and the production of IL-1β was evaluated by ELISA. A vehicle only control was run concurrently with each experiment. Final DMSO concentration was 1%.
THP-1 cells were purchased from the American Type Culture Collection and sub-cultured according to instructions from the supplier. Prior to experiments, cells were cultured in RPMI 1640 containing 10% heat inactivated FBS, penicillin (100 units/ml), streptomycin (100 μg/ml), HEPES (10 mM) and sodium pyruvate (1 mM) and maintained in log phase prior to experimental setup. Prior to the experiment, THP-1 cells were treated with PMA (Phorbol 12-myristate 13-acetate) (20 μg/ml) overnight. The day of the experiment, the media was removed and attached cells were treated with trypsin for 2 minutes, cells were then collected, washed with PBS (phosphate buffer saline), pelleted by centrifugation and resuspended in 2% heat inactivated FBS with RPMI at a concentration of 50,000 cells/well in a 384 well plate. Cell free supernatant was collected and the production of IL-1β was evaluated by ELISA. Compounds were dissolved in dimethyl sulfoxide (DMSO) and added to the culture medium to achieve desired concentration (e.g. 100, 30, 10, 3, 1, 0.3 or 0.1 μM). Cells were incubated with compounds for 2 hours. A vehicle only control was run concurrently with each experiment. Final DMSO concentration was 1%.
Serial dilutions of compounds in DMSO were added to low volume 384 well plates at 100 nl/well using an ECHO 550 acoustic dispenser (Labcyte) to achieve final starting concentration of 10 μM in assay.
THP-1 cells in RPMI (Gibco, 11875) media with 10% FBS at a density of 1×10^6 cell/ml in a T175 flask were treated with a final concentration of phorbol 12-myristate 13-acetate (PMA) (Sigma,P1585) of 50 ng/ml overnight at 37° C. at 5% CO2 for differentiation. Cells were harvested the next day after rinsing well with dPBS using 0.5% trypsin. A cell solution was prepared of 1×10^6 cells/ml for 50,000 cells in 50 μl/well in RPMI media with 2% FBS. Cells were plated using a multichannel pipette onto the compound dilutions in Greiner, 384 well, black clear bottom tissue culture treated plates (781090). The plates were incubated in 37° C. incubator at 5% CO2 for 2 hours.
After the 2 hour incubation, the cell plates were spun in the centrifuge for 5 minutes at 1200 rpm. Using the Felix (CyBio), 8 μl of the supernatant was transferred to 384 well, low volume, white proxy plates. (Perkin Elmer, 6008230). A human IL1beta hTRF kit was used to analyze the supernatant (CISBIO, 62HIL1BPEG). The kit instructions were followed for preparing the IL1Beta standard curve and then the antibodies from the kit were diluted 1:40 rather than 1:20 as kit instructed. Once combined, the antibodies were added across the plates, 5 μl/well. The plates were sealed and incubated at 4° C. overnight. The plates were then read on the Perkin Elmer EnVision at 665/615 nm using the hTRF laser.

[2] = molecular target: T2, human TLR8 (Homo sapiens, UniProt Q9NR97); test: In vitro human TLR8 reporter assay (HEK-Blue cells, NF-kB/AP1-inducible SEAP); conditions: TLR8 agonist EC50, HEK-Blue TLR8 NF-kB-SEAP reporter cells
T2 construct: host or cells: HEK-Blue cells (human HEK) co-expressing TLR8 and an NF-kB/AP1-inducible SEAP reporter
T2 sequence (Q9NR97 27-1041): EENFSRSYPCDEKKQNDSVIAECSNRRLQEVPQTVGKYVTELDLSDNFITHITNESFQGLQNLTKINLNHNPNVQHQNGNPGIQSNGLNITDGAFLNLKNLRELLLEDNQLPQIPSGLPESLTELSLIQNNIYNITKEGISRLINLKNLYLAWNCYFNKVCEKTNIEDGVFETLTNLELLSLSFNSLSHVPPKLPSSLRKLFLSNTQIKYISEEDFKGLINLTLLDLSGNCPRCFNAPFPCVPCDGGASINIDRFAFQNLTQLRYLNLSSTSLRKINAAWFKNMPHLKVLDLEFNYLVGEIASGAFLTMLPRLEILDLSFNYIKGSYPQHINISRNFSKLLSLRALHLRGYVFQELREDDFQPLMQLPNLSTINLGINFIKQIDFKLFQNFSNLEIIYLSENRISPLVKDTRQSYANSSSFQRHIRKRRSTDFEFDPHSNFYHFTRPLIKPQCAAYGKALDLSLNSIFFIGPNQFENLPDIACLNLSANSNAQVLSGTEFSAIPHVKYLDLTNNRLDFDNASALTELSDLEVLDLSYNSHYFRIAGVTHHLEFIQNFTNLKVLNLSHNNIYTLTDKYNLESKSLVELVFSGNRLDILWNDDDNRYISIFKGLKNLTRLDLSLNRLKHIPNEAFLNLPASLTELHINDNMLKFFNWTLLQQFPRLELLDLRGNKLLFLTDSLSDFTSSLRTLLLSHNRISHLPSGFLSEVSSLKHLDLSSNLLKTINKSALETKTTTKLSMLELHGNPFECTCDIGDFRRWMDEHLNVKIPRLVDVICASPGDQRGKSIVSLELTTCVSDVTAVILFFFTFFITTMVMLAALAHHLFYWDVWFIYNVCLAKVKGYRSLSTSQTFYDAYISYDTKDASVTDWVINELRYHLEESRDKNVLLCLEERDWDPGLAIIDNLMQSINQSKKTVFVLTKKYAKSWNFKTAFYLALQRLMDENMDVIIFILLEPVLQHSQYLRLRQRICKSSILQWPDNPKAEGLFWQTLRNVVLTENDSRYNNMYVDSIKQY
Procedure: (§1) Logarithmically-growing human HEK-Blue cells co-expressing a TLR7 or TLR8 gene and a NF-kB/AP1-inducible SEAP (secreted embryonic alkaline phosphatase; Invivogen, San Diego, CA) reporter gene are added to individual wells of a 384-well plate (15,000 cells per 20 μL per well) and maintained for 24 h at 37° C., 5% CO2. Test compounds or DMSO are distributed to separate wells the next day using acoustic liquid handling technology (100 nL per well) and cells are subsequently incubated for 18 h at 37° C., 5% CO2. Cellular SEAP production is measured using an Envision plate reader instrument thirty minutes after adding freshly-made Quanti-Blue reagent (prepared by following manufacturer instructions; Invivogen, San Diego, CA) to the HEK-Blue TLR Nf-kB-SEAP cell reactions. All EC50 values (half-maximal effective concentration) are determined using proprietary data analysis software. Normalized EC50 value=absolute value determined by setting 100% Ymax using a reference standard RLU (relative light unit) values from cells treated with 50 μM of the reference standard.

[3] = molecular target: T3, human TLR7 (Homo sapiens, UniProt Q9NYK1); test: In vitro human TLR7 reporter assay (HEK-Blue cells, NF-kB/AP1-inducible SEAP); conditions: TLR7 agonist EC50, HEK-Blue TLR7 NF-kB-SEAP reporter cells
T3 construct: host or cells: HEK-Blue cells (human HEK) co-expressing TLR7 and an NF-kB/AP1-inducible SEAP reporter
T3 sequence (Q9NYK1 27-1049): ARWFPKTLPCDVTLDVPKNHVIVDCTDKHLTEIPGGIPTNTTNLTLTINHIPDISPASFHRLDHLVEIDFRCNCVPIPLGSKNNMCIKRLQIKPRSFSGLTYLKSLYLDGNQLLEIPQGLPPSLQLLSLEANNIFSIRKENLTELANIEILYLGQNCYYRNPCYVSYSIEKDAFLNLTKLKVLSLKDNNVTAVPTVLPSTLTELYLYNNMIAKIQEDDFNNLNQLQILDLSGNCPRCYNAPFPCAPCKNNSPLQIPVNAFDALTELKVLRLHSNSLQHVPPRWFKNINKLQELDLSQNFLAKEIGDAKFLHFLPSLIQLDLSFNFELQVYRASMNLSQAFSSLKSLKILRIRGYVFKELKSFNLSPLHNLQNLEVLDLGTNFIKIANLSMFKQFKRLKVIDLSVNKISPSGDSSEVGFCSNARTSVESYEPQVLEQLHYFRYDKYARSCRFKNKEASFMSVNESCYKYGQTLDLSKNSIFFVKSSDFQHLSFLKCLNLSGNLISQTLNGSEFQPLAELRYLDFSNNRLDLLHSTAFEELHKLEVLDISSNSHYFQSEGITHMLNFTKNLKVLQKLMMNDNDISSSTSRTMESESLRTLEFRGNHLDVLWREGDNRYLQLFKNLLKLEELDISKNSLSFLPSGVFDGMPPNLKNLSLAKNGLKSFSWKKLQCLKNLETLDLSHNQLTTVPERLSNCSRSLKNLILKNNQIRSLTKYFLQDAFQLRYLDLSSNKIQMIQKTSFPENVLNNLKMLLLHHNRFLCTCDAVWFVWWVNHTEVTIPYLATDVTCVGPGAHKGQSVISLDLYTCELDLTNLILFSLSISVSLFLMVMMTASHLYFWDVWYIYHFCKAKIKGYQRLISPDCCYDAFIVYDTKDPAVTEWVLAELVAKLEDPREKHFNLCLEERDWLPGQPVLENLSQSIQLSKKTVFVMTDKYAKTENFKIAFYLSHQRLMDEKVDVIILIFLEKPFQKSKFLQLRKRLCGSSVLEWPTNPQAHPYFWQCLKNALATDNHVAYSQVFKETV
Procedure: as §1

T1 sequence (Q96P20 whole entry): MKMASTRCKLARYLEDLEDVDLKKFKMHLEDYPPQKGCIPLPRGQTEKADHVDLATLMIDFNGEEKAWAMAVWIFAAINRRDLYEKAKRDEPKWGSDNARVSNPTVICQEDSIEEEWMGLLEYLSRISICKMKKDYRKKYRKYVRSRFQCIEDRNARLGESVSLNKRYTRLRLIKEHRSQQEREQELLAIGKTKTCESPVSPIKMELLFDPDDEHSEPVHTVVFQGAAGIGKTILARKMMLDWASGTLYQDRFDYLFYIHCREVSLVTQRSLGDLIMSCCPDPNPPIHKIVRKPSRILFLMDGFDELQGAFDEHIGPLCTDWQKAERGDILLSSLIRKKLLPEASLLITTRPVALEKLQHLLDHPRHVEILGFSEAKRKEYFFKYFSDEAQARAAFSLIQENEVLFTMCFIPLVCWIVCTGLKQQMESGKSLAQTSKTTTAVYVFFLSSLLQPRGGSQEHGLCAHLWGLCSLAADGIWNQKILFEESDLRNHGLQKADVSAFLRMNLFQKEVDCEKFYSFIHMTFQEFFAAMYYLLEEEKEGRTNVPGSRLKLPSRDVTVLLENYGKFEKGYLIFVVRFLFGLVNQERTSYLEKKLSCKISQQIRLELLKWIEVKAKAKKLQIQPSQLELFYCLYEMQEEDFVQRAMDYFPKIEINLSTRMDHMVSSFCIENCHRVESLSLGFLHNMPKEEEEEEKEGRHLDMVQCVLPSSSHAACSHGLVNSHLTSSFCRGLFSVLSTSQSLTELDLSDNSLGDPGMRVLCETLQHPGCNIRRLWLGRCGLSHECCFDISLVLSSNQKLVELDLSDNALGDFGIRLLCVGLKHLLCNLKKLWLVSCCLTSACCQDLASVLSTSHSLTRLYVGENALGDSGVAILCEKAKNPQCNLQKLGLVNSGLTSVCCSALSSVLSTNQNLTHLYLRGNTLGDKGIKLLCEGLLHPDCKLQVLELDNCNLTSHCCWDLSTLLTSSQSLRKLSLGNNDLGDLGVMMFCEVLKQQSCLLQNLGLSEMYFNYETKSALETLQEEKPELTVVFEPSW

SMILES | EC50 [1] [µM] | EC50 [2] [µM] | EC50 [3] [µM]
CC(C)(C)OC(=O)N1CCC[C@H](c2nc3c(N)nc4cc(-c5cc[nH]n5)ccc4c3[nH]2)C1 [Example 1, tert-Butyl (S)-3-(4-amino-7-(1H-pyrazol-3-yl)-1H-imidazo[4,5-c]quinolin-2-yl)piperidine-1-carboxylate] | 0.33 | 10 | 
N#CC1(C(=O)N2CCC[C@H](c3nc4c(N)nc5cc(-c6cc[nH]n6)ccc5c4[nH]3)C2)CC1 [Example 3, (S)-1-(3-(4-Amino-7-(1H-pyrazol-3-yl)-1H-imidazo[4,5-c]quinolin-2-yl)piperidine-1-carbonyl)cyclopropane-1-carbonitrile] | 0.98 |  | 0.62
CC(C)(C)OC(=O)N1CCC[C@@H](c2nc3c(N)nc4cc(-c5cc[nH]n5)ccc4c3[nH]2)C1 [Example 6, tert-Butyl (R)-3-(4-amino-7-(1H-pyrazol-3-yl)-1H-imidazo[4,5-c]quinolin-2-yl)piperidine-1-carboxylate] | 0.36 | 10 | 
CC(C)(C)C(=O)N1CCC[C@H](c2nc3c(N)nc4cc(-c5cc[nH]n5)ccc4c3[nH]2)C1 [Example 28] | 1.2 | 47 | 
N#CC1(C(=O)N2CCC[C@H](c3nc4c(N)nc5cc(-c6cc[nH]n6)ccc5c4[nH]3)C2)CCCCC1 [Example 38] | 2 | 17 | 
N#CC1(C(=O)N2CCC[C@H](c3nc4c(N)nc5cc(-c6cc[nH]n6)ccc5c4[nH]3)C2)CCCC1 [Example 39] | 2.5 |  | 35
Nc1nc2cc(-c3cc[nH]n3)ccc2c2[nH]c([C@H]3CCCN(C(=O)Cc4ccccc4)C3)nc12 [Example 40] | 3.8 |  | 58
N#CC1(C(=O)N2CCC[C@@H](c3nc4c(N)nc5cc(-c6cc[nH]n6)ccc5c4[nH]3)C2)CCCC1 [Example 70] | 3.9 |  | 57
CC(C)CC(=O)N1CCC[C@H]1Cc1nc2c(N)nc3cc(-c4cc[nH]n4)ccc3c2[nH]1 [Example 87] | 4.3 | 77 | 
